Converted amounts (≈) assume the structure as drawn. Some results are limits rather than exact numbers.

One series concerns Mycobacterium tuberculosis. In words: microbe, parasite or virus in culture. To be noted: H37Rv.
Description: Antimycobacterial activity against Mycobacterium tuberculosis H37Rv by agar double dilution technique
`Cc1c(NCc2nnc(-c3cccs3)o2)c(=O)n(-c2ccccc2)n1C` displayed an MIC90 of 6.81 µM (≈ 2.5 µg/mL).

`NNC(=O)c1ccncc1` [ISONIAZID] had an MIC90 of 0.78 µM (≈ 0.107 µg/mL).

`Cc1c(NCc2nnc(Cc3ccccc3)o2)c(=O)n(-c2ccccc2)n1C`: the MIC90 came out at 10 µM (≈ 3.75 µg/mL).

On to `Cc1c(NCc2nnc(-c3ccccc3O)o2)c(=O)n(-c2ccccc2)n1C`, for which the MIC90 was above 13.2 µM.

For `Cc1c(NCc2nnc(-c3ccc(Cl)cc3)o2)c(=O)n(-c2ccccc2)n1C`, the MIC90 stood at 3.94 µM (≈ 1.56 µg/mL).

Compound `Cc1c(NCc2nnc(-c3ccccc3)o2)c(=O)n(-c2ccccc2)n1C` yielded an MIC90 of 10 µM (≈ 3.61 µg/mL).

With `COc1ccc(-c2nnc(CNc3c(C)n(C)n(-c4ccccc4)c3=O)o2)cc1`, the MIC90 was above 12.8 µM.

The next series deals with Escherichia coli. As to the kind of experiment: Antibacterial activity against Escherichia coli NCIM 5051 by broth dilution technique. It is filed as functional.
Settings: not given
In turn, `Cc1c(NCc2nnc(-c3cccs3)o2)c(=O)n(-c2ccccc2)n1C` gave an MIC of 8 µg/mL (≈ 21.8 µM).

In the case of `Cc1c(NCc2nnc(Cc3ccccc3)o2)c(=O)n(-c2ccccc2)n1C`, it took 256 µg/mL (≈ 682 µM) to inhibit growth (MIC).

Turning to `Cc1c(NCc2nnc(-c3ccccc3O)o2)c(=O)n(-c2ccccc2)n1C`, the lowest concentration to inhibit growth (MIC) was 128 µg/mL (≈ 339 µM).

Compound `Cc1c(NCc2nnc(-c3ccc(Cl)cc3)o2)c(=O)n(-c2ccccc2)n1C` registered a minimum inhibitory concentration (MIC) of 4 µg/mL (≈ 10.1 µM).

As for `Cc1c(NCc2nnc(-c3ccccc3)o2)c(=O)n(-c2ccccc2)n1C`, the minimum inhibitory concentration (MIC) was determined as 512 µg/mL (≈ 1420 µM).

Consider `COc1ccc(-c2nnc(CNc3c(C)n(C)n(-c4ccccc4)c3=O)o2)cc1`, for which the minimal inhibitory concentration (MIC) amounted to 256 µg/mL (≈ 654 µM).

System in a further series: not listed separately
As to the kind of experiment: Octanol-water partition coefficient, log P of the compound. The class given is physicochemical.
Settings: not given
`Cc1c(NCc2nnc(-c3cccs3)o2)c(=O)n(-c2ccccc2)n1C`: the logP was found to be 1.9.

Compound `Cc1c(NCc2nnc(Cc3ccccc3)o2)c(=O)n(-c2ccccc2)n1C` showed a lipophilicity (logP) of 1.64.

Consider `Cc1c(NCc2nnc(-c3ccccc3O)o2)c(=O)n(-c2ccccc2)n1C`, for which the logP turned out to be 1.71.

`Cc1c(NCc2nnc(-c3ccc(Cl)cc3)o2)c(=O)n(-c2ccccc2)n1C`: the log partition coefficient (logP) amounted to 2.7.

Compound `Cc1c(NCc2nnc(-c3ccccc3)o2)c(=O)n(-c2ccccc2)n1C` displayed a logP of 2.02.

`COc1ccc(-c2nnc(CNc3c(C)n(C)n(-c4ccccc4)c3=O)o2)cc1` displayed a lipophilicity (logP) of 2.07.

In the next series the test system is Pseudomonas aeruginosa. In words: Antibacterial activity against Pseudomonas aeruginosa ATCC 10145 by broth dilution technique. It is filed as functional.
Settings: not given
A general note: Dilution methods test growth across graded concentrations, often in twofold steps.
Turning to `O=C(O)c1cn(C2CC2)c2cc(N3CCNCC3)c(F)cc2c1=O` [CIPROFLOXACIN], 4 µg/mL (≈ 12.1 µM) was the least that counted as inhibitory (MIC).

As for `Cc1c(NCc2nnc(-c3cccs3)o2)c(=O)n(-c2ccccc2)n1C`, the MIC was found to be 8 µg/mL (≈ 21.8 µM).

For `Cc1c(NCc2nnc(Cc3ccccc3)o2)c(=O)n(-c2ccccc2)n1C`, 256 µg/mL (≈ 682 µM) was the least that counted as inhibitory (MIC).

The compound `Cc1c(NCc2nnc(-c3ccccc3O)o2)c(=O)n(-c2ccccc2)n1C` registered an MIC of 128 µg/mL (≈ 339 µM).

`Cc1c(NCc2nnc(-c3ccc(Cl)cc3)o2)c(=O)n(-c2ccccc2)n1C` showed an MIC of 8 µg/mL (≈ 20.2 µM).

`Cc1c(NCc2nnc(-c3ccccc3)o2)c(=O)n(-c2ccccc2)n1C` had a minimal inhibitory concentration (MIC) of 512 µg/mL (≈ 1420 µM).

Compound `COc1ccc(-c2nnc(CNc3c(C)n(C)n(-c4ccccc4)c3=O)o2)cc1` came in with a minimal inhibitory concentration (MIC) above 512 µg/mL.

Another series deals with Candida albicans. In words: Antifungal activity against Candida albicans NCIM 3417 by agar diffusion method. The class given is functional.
Settings: not given
A general note: A growth-free zone around the sample is the usual read-out of agar diffusion tests.
In turn, `Cc1c(NCc2nnc(-c3cccs3)o2)c(=O)n(-c2ccccc2)n1C` had a minimum inhibitory concentration (MIC) of 256 µg/mL (≈ 697 µM).

For `Cc1c(NCc2nnc(Cc3ccccc3)o2)c(=O)n(-c2ccccc2)n1C`, the MIC was 512 µg/mL (≈ 1360 µM).

In turn, `Cc1c(NCc2nnc(-c3ccccc3O)o2)c(=O)n(-c2ccccc2)n1C` gave a minimum inhibitory concentration (MIC) of 16 µg/mL (≈ 42.4 µM).

Take `Cc1c(NCc2nnc(-c3ccc(Cl)cc3)o2)c(=O)n(-c2ccccc2)n1C`: the minimal inhibitory concentration (MIC) amounted to 128 µg/mL (≈ 323 µM).

For the compound `OC(Cn1cncn1)(Cn1cncn1)c1ccc(F)cc1F` [FLUCONAZOLE], the minimal inhibitory concentration (MIC) amounted to 1 µg/mL (≈ 3.27 µM).

Regarding `Cc1c(NCc2nnc(-c3ccccc3)o2)c(=O)n(-c2ccccc2)n1C`, the lowest concentration to inhibit growth (MIC) was 512 µg/mL (≈ 1420 µM).

As to `COc1ccc(-c2nnc(CNc3c(C)n(C)n(-c4ccccc4)c3=O)o2)cc1`, the MIC is 32 µg/mL (≈ 81.8 µM).

For a further series, the system named is Aspergillus niger. In words: Antifungal activity against Aspergillus niger NCIM 1196 by agar diffusion method. The class given is functional.
Settings: not given
Take `Cc1c(NCc2nnc(-c3cccs3)o2)c(=O)n(-c2ccccc2)n1C`: inhibition of growth (MIC) required 128 µg/mL (≈ 348 µM).

Regarding `Cc1c(NCc2nnc(Cc3ccccc3)o2)c(=O)n(-c2ccccc2)n1C`, it took 512 µg/mL (≈ 1360 µM) to inhibit growth (MIC).

The compound `Cc1c(NCc2nnc(-c3ccccc3O)o2)c(=O)n(-c2ccccc2)n1C` displayed an MIC of 8 µg/mL (≈ 21.2 µM).

As to `Cc1c(NCc2nnc(-c3ccc(Cl)cc3)o2)c(=O)n(-c2ccccc2)n1C`, it took 256 µg/mL (≈ 647 µM) to inhibit growth (MIC).

For `OC(Cn1cncn1)(Cn1cncn1)c1ccc(F)cc1F` [FLUCONAZOLE], inhibition of growth (MIC) required 2 µg/mL (≈ 6.53 µM).

`Cc1c(NCc2nnc(-c3ccccc3)o2)c(=O)n(-c2ccccc2)n1C` showed an MIC of 512 µg/mL (≈ 1420 µM).

Take `COc1ccc(-c2nnc(CNc3c(C)n(C)n(-c4ccccc4)c3=O)o2)cc1`: the MIC amounted to 16 µg/mL (≈ 40.9 µM).

The next series deals with Staphylococcus aureus. In words: Antibacterial activity against Staphylococcus aureus NCIM 2079 by broth dilution technique. It is filed as functional.
Settings: not given
Regarding `O=C(O)c1cn(C2CC2)c2cc(N3CCNCC3)c(F)cc2c1=O` [CIPROFLOXACIN], the lowest concentration to inhibit growth (MIC) was 4 µg/mL (≈ 12.1 µM).

With `Cc1c(NCc2nnc(-c3cccs3)o2)c(=O)n(-c2ccccc2)n1C`, the MIC was 8 µg/mL (≈ 21.8 µM).

Turning to `Cc1c(NCc2nnc(Cc3ccccc3)o2)c(=O)n(-c2ccccc2)n1C`, the minimal inhibitory concentration (MIC) worked out at 256 µg/mL (≈ 682 µM).

For `Cc1c(NCc2nnc(-c3ccccc3O)o2)c(=O)n(-c2ccccc2)n1C`, the MIC was determined as 128 µg/mL (≈ 339 µM).

Consider `Cc1c(NCc2nnc(-c3ccc(Cl)cc3)o2)c(=O)n(-c2ccccc2)n1C`, for which the MIC came to 8 µg/mL (≈ 20.2 µM).

Turning to `Cc1c(NCc2nnc(-c3ccccc3)o2)c(=O)n(-c2ccccc2)n1C`, the MIC turned out to be 512 µg/mL (≈ 1420 µM).

In turn, `COc1ccc(-c2nnc(CNc3c(C)n(C)n(-c4ccccc4)c3=O)o2)cc1` showed an MIC above 512 µg/mL.

In a further series the test system is Bacillus subtilis. In words: Antibacterial activity against Bacillus subtilis NCIM 2439 by broth dilution technique. The class given is functional.
Settings: not given
On to `O=C(O)c1cn(C2CC2)c2cc(N3CCNCC3)c(F)cc2c1=O` [CIPROFLOXACIN], for which the MIC was determined as 4 µg/mL (≈ 12.1 µM).

Turning to `Cc1c(NCc2nnc(-c3cccs3)o2)c(=O)n(-c2ccccc2)n1C`, the MIC was 16 µg/mL (≈ 43.5 µM).

Turning to `Cc1c(NCc2nnc(Cc3ccccc3)o2)c(=O)n(-c2ccccc2)n1C`, 256 µg/mL (≈ 682 µM) was the least that counted as inhibitory (MIC).

`Cc1c(NCc2nnc(-c3ccccc3O)o2)c(=O)n(-c2ccccc2)n1C` displayed an MIC of 64 µg/mL (≈ 170 µM).

Regarding `Cc1c(NCc2nnc(-c3ccc(Cl)cc3)o2)c(=O)n(-c2ccccc2)n1C`, the MIC was 8 µg/mL (≈ 20.2 µM).

In turn, `Cc1c(NCc2nnc(-c3ccccc3)o2)c(=O)n(-c2ccccc2)n1C` gave an MIC of 512 µg/mL (≈ 1420 µM).

With `COc1ccc(-c2nnc(CNc3c(C)n(C)n(-c4ccccc4)c3=O)o2)cc1`, the MIC was above 512 µg/mL.

The MIC is the lowest concentration that inhibits growth of the organism. Read a low MIC as inhibition by little substance. By logP is commonly meant the decadic logarithm of the partition coefficient of the neutral form, usually between octanol and water.

Source of the values: ChEMBL document CHEMBL1921682, “Molecular properties prediction and synthesis of novel 1,3,4-oxadiazole analogues as potent antimicrobial and antitubercular agents” (Bioorg Med Chem Lett, 2011).
